According to patent publication US11773369B2, “Generation of human spinal cord neural stem cells” (THE REGENTS OF THE UNIVERSITY OF CALIFORNIA, priority 2018, dated 2023):

Tested on: H9-derived spinal cord NSCs
Assay: Long-term maintenance and expansion of spinal cord NSCs in neural maintenance media
Type: cell-based, human
Settings: for effect of omission from maintenance media on cultures: omission of the component, data not shown

Row | SMILES | effect on dorso-ventral polarity of induced cells (NKX6.1, PAX6) (18 days after neural induction) | effect of omission from maintenance media on cultures
1 | CNC1CCC(N(Cc2cccc(-c3ccncc3)c2)C(=O)c2sc3c(F)ccc(F)c3c2Cl)CC1 (stereo not drawn) [Hh-Ag1.5] | disrupted dorso-ventral polarity | failure to sustain cultures over time
2 | Cc1c[nH]c(-c2cnc(NCCNc3ccc(C#N)cn3)nc2-c2ccc(Cl)cc2Cl)n1 [CHIR] | – | failure to sustain cultures over time
